According to patent US9834565B2, “Tricyclic heterocycles as bet protein inhibitors” (Incyte Corporation, priority 2014, dated 2017):

Tests used:
BRD4-BD1 = BRD4-BD1 (Homo sapiens (Human), UniProt O60885); assay: BRD4-BD1 AlphaScreen assay; assay type: binding; settings: H4Ac4 peptide, read-out: BRD4 BD-1 enzyme IC50
Description: (§1) BRD4-BD1 and BRD4-BD2 assays were conducted in white 384-well polystyrene plate in a final volume of 20 μL for BD1 and 40 μL for BD2. Inhibitors were first serially diluted in DMSO and added to the plate wells before the addition of other reaction components. […] After plate sealing, the plate was incubated in the dark at room temperature for 75 min. before reading on a PHERAstar FS plate reader (BMG Labtech). IC50 determination was performed by fitting the curve of percent control activity versus the log of the inhibitor concentration using the GraphPad Prism 5.0 software.

BRD4-BD2 = BRD4-BD2 (Homo sapiens (Human), UniProt O60885); assay: BRD4-BD2 AlphaScreen assay; assay type: binding; settings: H4Ac4 peptide, read-out: BRD4 BD-2 enzyme IC50
Description: as §1

Compound | IC50 (BRD4-BD1) | IC50 (BRD4-BD2)
CC(=O)N1CCN(c2nc3ccc(-c4c(C)noc4C)c4c3n2[C@@H](c2ccccn2)CO4)[C@@H](C)C1 [Example 3, (4S)-2-[(2S)-4-acetyl-2-methylpiperazin-1-yl]-7-(3,5-dimethylisoxazol-4-yl)-4-pyridin-2-yl-4,5-dihydroimidazo[1,5,4-de][1,4] benzoxazine] | 25 to 100 nM | < 25 nM
CC(=O)NC1(C)CCN(c2nc3ccc(-c4c(C)noc4C)c4c3n2[C@@H](c2ccccn2)CO4)CC1 [Example 5, N-{1-[(4S)-7-(3,5-dimethylisoxazol-4-yl)-4-pyridin-2-yl-4,5-dihydroimidazo[1,5,4-de][1,4]benzoxazin-2-yl]-4-methylpiperidin-4-yl}acetamide] | 25 to 100 nM | < 25 nM
CCC(=O)N(C)C1CCN(c2nc3ccc(-c4c(C)noc4C)c4c3n2[C@@H](c2ccccn2)CO4)CC1 [Example 15, N-{1-[(4S)-7-(3,5-dimethylisoxazol-4-yl)-4-pyridin-2-yl-4,5-dihydroimidazo[1,5,4-de][1,4]benzoxazin-2-yl]piperidin-4-yl}-N-methylpropanamide] | < 25 nM | < 25 nM
CCCC(=O)N(C)C1CCN(c2nc3ccc(-c4c(C)noc4C)c4c3n2[C@@H](c2ccccn2)CO4)CC1 [Example 16, N-{1-[(4S)-7-(3,5-dimethylisoxazol-4-yl)-4-pyridin-2-yl-4,5-dihydroimidazo[1,5,4-de][1,4]benzoxazin-2-yl]piperidin-4-yl}-N-methylbutanamide] | < 25 nM | < 25 nM
Cc1noc(C)c1-c1ccc2nc(N3CCC(N(C)C(=O)C(C)C)CC3)n3c2c1OC[C@@H]3c1ccccn1 [Example 17, N-{1-[(4S)-7-(3,5-dimethylisoxazol-4-yl)-4-pyridin-2-yl-4,5-dihydroimidazo[1,5,4-de][1,4]benzoxazin-2-yl]piperidin-4-yl}-N,2-dimethylpropanamide] | < 25 nM | < 25 nM
Cc1noc(C)c1-c1ccc2nc(N3CCC(N(C)C(=O)C(C)(C)C)CC3)n3c2c1OC[C@@H]3c1ccccn1 [Example 18, N-{1-[(4S)-7-(3,5-dimethylisoxazol-4-yl)-4-pyridin-2-yl-4,5-dihydroimidazo[1,5,4-de][1,4]benzoxazin-2-yl]piperidin-4-yl}-N,2,2-trimethylpropanamide] | < 25 nM | < 25 nM
Cc1noc(C)c1-c1ccc2nc(N3CCC(N(C)C(=O)C4CC4)CC3)n3c2c1OC[C@@H]3c1ccccn1 [Example 19, N-{1-[(4S)-7-(3,5-dimethylisoxazol-4-yl)-4-pyridin-2-yl-4,5-dihydroimidazo[1,5,4-de][1,4]benzoxazin-2-yl]piperidin-4-yl}-N-methylcyclopropanecarboxamide] | < 25 nM | < 25 nM
Cc1noc(C)c1-c1ccc2nc(N3CCC(N(C)C(=O)C4CCC4)CC3)n3c2c1OC[C@@H]3c1ccccn1 [Example 20, N-{1-[(4S)-7-(3,5-dimethylisoxazol-4-yl)-4-pyridin-2-yl-4,5-dihydroimidazo[1,5,4-de][1,4]benzoxazin-2-yl]piperidin-4-yl}-N-methylcyclobutanecarboxamide] | < 25 nM | < 25 nM
CCS(=O)(=O)N(C)C1CCN(c2nc3ccc(-c4c(C)noc4C)c4c3n2[C@@H](c2ccccn2)CO4)CC1 [Example 23, N-{1-[(4S)-7-(3,5-dimethylisoxazol-4-yl)-4-pyridin-2-yl-4,5-dihydroimidazo[1,5,4-de][1,4]benzoxazin-2-yl]piperidin-4-yl}-N-methylethanesulfonamide] | < 25 nM | < 25 nM
Cc1noc(C)c1-c1ccc2nc(N3CCC(N(C)S(=O)(=O)C4CC4)CC3)n3c2c1OC[C@@H]3c1ccccn1 [Example 24, N-{1-[(4S)-7-(3,5-dimethylisoxazol-4-yl)-4-pyridin-2-yl-4,5-dihydroimidazo[1,5,4-de][1,4]benzoxazin-2-yl]piperidin-4-yl}-N-methylcyclopropanesulfonamide] | < 25 nM | < 25 nM
CCCC(=O)N1CCN(c2nc3ccc(-c4c(C)noc4C)c4c3n2[C@@H](c2ccccn2)CO4)CC1 [Example 25, (4S)-2-(4-butyrylpiperazin-1-yl)-7-(3,5-dimethylisoxazol-4-yl)-4-pyridin-2-yl-4,5-dihydroimidazo[1,5,4-de][1,4]benzoxazine] | < 25 nM | < 25 nM
Cc1noc(C)c1-c1ccc2nc(N3CCN(C(=O)C(C)(C)C)CC3)n3c2c1OC[C@@H]3c1ccccn1 [Example 26, (4S)-7-(3,5-dimethylisoxazol-4-yl)-2-[4-(2,2-dimethylpropanoyl)piperazin-1-yl]-4-pyridin-2-yl-4,5-dihydroimidazo[1,5,4-de][1,4]benzoxazine] | < 25 nM | < 25 nM
Cc1noc(C)c1-c1ccc2nc(N3CCN(C(=O)C4CCC4)CC3)n3c2c1OC[C@@H]3c1ccccn1 [Example 28, (4S)-2-[4-(cyclobutylcarbonyl)piperazin-1-yl]-7-(3,5-dimethylisoxazol-4-yl)-4-pyridin-2-yl-4,5-dihydroimidazo[1,5,4-de][1,4]benzoxazine] | < 25 nM | < 25 nM
COCC(=O)N1CCN(c2nc3ccc(-c4c(C)noc4C)c4c3n2[C@@H](c2ccccn2)CO4)CC1 [Example 29, (4S)-7-(3,5-dimethylisoxazol-4-yl)-2-[4-(methoxyacetyl)piperazin-1-yl]-4-pyridin-2-yl-4,5-dihydroimidazo[1,5,4-de][1,4]benzoxazine] | < 25 nM | < 25 nM

Further lines, results first:

IC50 (BRD4-BD1) | IC50 (BRD4-BD2) | Compound
< 25 nM | < 25 nM | CC(=O)N1C[C@@H](C)N(c2nc3ccc(-c4c(C)noc4C)c4c3n2[C@@H](c2ccccn2)CO4)[C@@H](C)C1 (atropisomer, axis not shown) [Example 2, (4S)-2-[(2R,6S)-4-Acetyl-2,6-dimethylpiperazin-1-yl]-7-(3,5-dimethylisoxazol-4-yl)-4-pyridin-2-yl-4,5-dihydroimidazo[1,5,4-de][1,4]benzoxazine]
< 25 nM | < 25 nM | Cc1noc(C)c1-c1ccc2nc(N3CCN(C(=O)C(C)C)CC3)n3c2c1OC[C@@H]3c1ccccn1 [Example 1, (4S)-7-(3,5-Dimethylisoxazol-4-yl)-2-(4-isobutyrylpiperazin-1-yl)-4-pyridin-2-yl-4,5-dihydroimidazo[1,5,4-de][1,4]benzoxazine]
< 25 nM | < 25 nM | CC(=O)N1CC2CC1CN2c1nc2ccc(-c3c(C)noc3C)c3c2n1[C@@H](c1ccccn1)CO3 (stereo partly drawn) [Example 4, (4S)-2-(5-acetyl-2,5-diazabicyclo[2.2.1]hept-2-yl)-7-(3,5-dimethylisoxazol-4-yl)-4-pyridin-2-yl-4,5-dihydroimidazo[1,5,4-de][1,4]benzoxazine]
< 25 nM | < 25 nM | CCC(=O)N1CCN(c2nc3ccc(-c4c(C)noc4C)c4c3n2[C@@H](c2ccccn2)CO4)C[C@@H]1C [Example 8, (4S)-7-(3,5-dimethylisoxazol-4-yl)-2-[(3S)-3-methyl-4-propionylpiperazin-1-yl]-4-pyridin-2-yl-4,5-dihydroimidazo[1,5,4-de][1,4]benzoxazine]
< 25 nM | < 25 nM | Cc1noc(C)c1-c1ccc2nc(N3CCN(C(=O)C(C)C)[C@@H](C)C3)n3c2c1OC[C@@H]3c1ccccn1 [Example 9, (4S)-7-(3,5-dimethylisoxazol-4-yl)-2-[(3S)-4-isobutyryl-3-methylpiperazin-1-yl]-4-pyridin-2-yl-4,5-dihydroimidazo[1,5,4-de][1,4]benzoxazine]
< 25 nM | < 25 nM | CCCC(=O)NC1CCN(c2nc3ccc(-c4c(C)noc4C)c4c3n2[C@@H](c2ccccn2)CO4)CC1 [Example 10, N-{1-[(4S)-7-(3,5-dimethylisoxazol-4-yl)-4-pyridin-2-yl-4,5-dihydroimidazo[1,5,4-de][1,4]benzoxazin-2-yl]piperidin-4-yl}butanamide]
< 25 nM | < 25 nM | Cc1noc(C)c1-c1ccc2nc(N3CCC(NC(=O)C(C)(C)C)CC3)n3c2c1OC[C@@H]3c1ccccn1 [Example 11, N-{1-[(4S)-7-(3,5-dimethylisoxazol-4-yl)-4-pyridin-2-yl-4,5-dihydroimidazo[1,5,4-de][1,4]benzoxazin-2-yl]piperidin-4-yl}-2,2-dimethylpropanamide]
< 25 nM | < 25 nM | Cc1noc(C)c1-c1ccc2nc(N3CCC(NC(=O)C4CCC4)CC3)n3c2c1OC[C@@H]3c1ccccn1 [Example 13, N-{1-[(4S)-7-(3,5-dimethylisoxazol-4-yl)-4-pyridin-2-yl-4,5-dihydroimidazo[1,5,4-de][1,4]benzoxazin-2-yl]piperidin-4-yl}cyclobutanecarboxamide]
